The values below are quoted from earlier work in US7517545B2, “Reduced-calorie fats containing behenic acid and process of making thereof” (Council of Scientific & Industrial Research, priority 1997, dated 2009).

For this series the following is noted: feed study on rats.

With `CCCCCCCCCCCCCCCCCCCCCCOC(COC(=O)CCCCC)COC(=O)CCCCC` [2-behenyl-1,3-dicaproyl glycerol], the “absorption of the structured triglycerides vs other oils” value is recorded as “significantly lower” and the “excretion into feces vs other oils” value is on record as “higher than other oils”.
